The pIC50 is the IC50 on a negative log10 scale, so that one unit is a factor of ten.

This is an account of results in ChEMBL document CHEMBL5244230, “Artemisinin-derived hybrids and their anticancer activity” (Eur J Med Chem, 2020).

The subject of one data set is TRAMP-C1A. In words: Antiproliferative activity against mouse TRAMP-C1A cells. The class given is functional, cell-based.
In the next data set the test system is C2D cell line. The data set can be described thus: Antiproliferative activity against mouse C2D cell line. The class given is functional, cell-based.
Another data set deals with C2G cell line. In words: Antiproliferative activity against mouse C2G cell line. The class given is functional, cell-based.
The test system of another data set is TRAMP-C2H. The data set can be described thus: Antiproliferative activity against mouse TRAMP-C2H cells. Type of data set: functional, cell-based.
For data set [1], the system named is MCF7. The data set can be described thus: Anticancer activity against human MCF7 cells. Type of data set: functional, cell-based.
Data set [2] relates to MCF7. In words: Anticancer activity against human MCF7 cells assessed as inhibition of cell growth. The class given is functional, cell-based.
A short description of data set [3]: Anticancer activity against human Lu1 cells. Type of data set: functional, cell-based.
Data set [4] concerns HL-60. The data set can be described thus: Anticancer activity against human HL-60 cells. Type of data set: functional, cell-based.
The test system of the next data set is P388. The data set can be described thus: Anticancer activity against mouse P388 cells. Type of data set: functional, cell-based.
Data set [5] concerns MCF7. The data set can be described thus: Potency index, ratio of dihydroartemisinin IC50 to test compound IC50 for anticancer activity against human MCF7 cells. Type of data set: functional.
Data set [6] in a line: Potency index, ratio of dihydroartemisinin IC50 to test compound IC50 for anticancer activity against human Lu1 cells. Type of data set: functional.
Data set [7] has as its system HL-60. In words: Potency index, ratio of dihydroartemisinin IC50 to test compound IC50 for anticancer activity against human HL-60 cells. The class given is functional.
The nature of data set [8]: Potency index, ratio of dihydroartemisinin IC50 to test compound IC50 for anticancer activity against mouse […] cells. The class given is functional.
Data set [9] is described as follows: Antiproliferative activity against human Renal carcinoma cell. The class given is functional, cell-based.
The subject of data set [10] is Ovarian cancer cell line. In words: Antiproliferative activity against human Ovarian cancer cell line. Type of data set: functional, cell-based.
Data set [11] relates to Melanoma cell line. The data set can be described thus: Antiproliferative activity against human Melanoma cell line. The class given is functional, cell-based.
Data set [12] is described as follows: Antiproliferative activity against human leukaemia cell line. The class given is functional, cell-based.
Data set [13] concerns Breast carcinoma cell. The data set can be described thus: Antiproliferative activity against human Breast cancer cell line. The class given is functional, cell-based.
A further data set has as its system leukaemia cell line. In words: Potency index, ratio of artemisinin IC50 to test compound IC50 for antiproliferative activity against human leukaemia cell line assessed as inhibition of cell growth. The class given is functional.
In data set [14] the test system is Melanoma cell line. In words: Potency index, ratio of artemisinin IC50 to test compound IC50 for antiproliferative activity against human Melanoma cell line assessed as inhibition of cell growth. Type of data set: functional.
Data set [15] relates to Ovarian cancer cell line. The data set can be described thus: Potency index, ratio of artemisinin IC50 to test compound IC50 for antiproliferative activity against human Ovarian cancer cell line assessed as inhibition of cell growth. The class given is functional.
A further data set has as its system Prostatic carcinoma cell. The data set can be described thus: Potency index, ratio of artemisinin IC50 to test compound IC50 for antiproliferative activity against human Prostatic carcinoma cell assessed as inhibition of cell growth. Type of data set: functional.
Data set [16] has as its system Breast carcinoma cell. The data set can be described thus: Potency index, ratio of artemisinin IC50 to test compound IC50 for antiproliferative activity against human Breast carcinoma cell assessed as inhibition of cell growth. Type of data set: functional.
The next data set concerns P388/ADR. In words: Potency index, ratio of doxorubicin IC50 to test compound IC50 for antiproliferative activity against mouse P388/ADR cells assessed as reduction in cell viability measured after 72 hrs. The class given is functional.
The subject of data set [17] is MDA-MB-231. The data set can be described thus: Antiproliferative activity against human MDA-MB-231 cells assessed as reduction in cell viability. Type of data set: functional, cell-based.
For data set [18], the system named is A549. The data set can be described thus: Antiproliferative activity against human A549 cells. Type of data set: functional, cell-based.
A further data set relates to K562. The data set can be described thus: Antiproliferative activity against human K562 cells. Type of data set: functional, cell-based.
The next data set relates to PC-3. In words: Antiproliferative activity against human PC-3 cells. The class given is functional, cell-based.
Another data set concerns A-431. The data set can be described thus: Antiproliferative activity against human A-431 cells. Type of data set: functional, cell-based.
Data set [19] has as its system MDA-MB-231. The data set can be described thus: Antiproliferative activity against human MDA-MB-231 cells. The class given is functional, cell-based. The settings on record: Homo sapiens, MDA-MB-231.
The subject of the next data set is COLO 205. The data set can be described thus: Antiproliferative activity against human COLO 205 cells. The class given is functional, cell-based.
In another data set the test system is HEK293. The data set can be described thus: Antiproliferative activity against human HEK293 cells. The class given is functional, cell-based.
Data set [20] concerns HCT-15. In words: Antiproliferative activity against human HCT-15 cells assessed as inhibition of cell growth at 50 uM relative to control. Set-up: scale not given: the % may be the effect or the level left. The class given is functional.
A further data set has as its system HepG2. The data set can be described thus: Antiproliferative activity against human HepG2 cells assessed as cell growth inhibition by MTT assay. Type of data set: functional, cell-based.
Data set [21] relates to A549. The data set can be described thus: Antiproliferative activity against human A549 cells assessed as inhibition of cell growth at 50 uM relative to control. The class given is functional. Also on record: scale not given: the % may be the effect or the level left.
The subject of the next data set is THP-1. In words: Antiproliferative activity against human THP-1 cells assessed as inhibition of cell growth at 50 uM relative to control. Type of data set: functional. Also on record: scale not given: the % may be the effect or the level left.
Another data set has as its system HEp-2. In words: Antiproliferative activity against human HEp-2 cells assessed as inhibition of cell growth at 50 uM relative to control. Type of data set: functional. Set-up: scale not given: the % may be the effect or the level left.
The test system of data set [22] is A549. The data set can be described thus: Antiproliferative activity against human A549 cells assessed as cell growth inhibition by MTT assay. The class given is functional, cell-based.
Data set [23] concerns HCT-15. In words: Antiproliferative activity against human HCT-15 cells assessed as cell growth inhibition by MTT assay. Type of data set: functional, cell-based. (In general: Formazan colour is commonly taken as a measure of viable cells.)
Data set [24] in a line: Cytotoxicity against human HCEC cells. The class given is toxicity, cell-based.
The next data set has as its system SMMC-7721. In words: Antiproliferative activity against human SMMC-7721 cells. Type of data set: functional, cell-based.

pIC50: −log10 of the molar value.

With `C[C@H]1[C@@H](OC(COC(=O)c2cc[n+]([O-])cc2)C[C@H]2O[C@@H]3O[C@@]4(C)CC[C@H]5[C@H](C)CC[C@@H]([C@H]2C)[C@@]35OO4)O[C@@H]2O[C@@]3(C)CC[C@H]4[C@H](C)CC[C@@H]1[C@@]24OO3` (some centres not stated), the pIC50 in the data set on TRAMP-C1A, in the data set on C2D cell line, in the data set on C2G cell line and in the data set with TRAMP-C2H was 7.44 throughout.
As for `CC1CCNC(C(=O)c2ccc(-n3cc(CO[C@H]4O[C@@H]5O[C@@]6(C)CC[C@H]7[C@H](C)CC[C@@H]([C@H]4C)[C@@]57OO6)nn3)cc2)C1` (some centres not stated), the pIC50 (in the data set on MCF7 [1]; in the data set on MCF7 [2]; in [3]; in the data set with HL-60 [4]; in the data set with P388) was 5.60 in each case. For the same molecule, the “Ratio IC50” value (in the data set on MCF7 [5]; in data set [6]; in the data set on HL-60 [7]; in data set [8]) was 10.5 in each case.
As to `C[C@H]1[C@@H](OC/C(=N\O)O[C@H]2O[C@@H]3O[C@@]4(C)CC[C@H]5[C@H](C)CC[C@@H]([C@H]2C)[C@@]35OO4)O[C@@H]2O[C@@]3(C)CC[C@H]4[C@H](C)CC[C@@H]1[C@@]24OO3`, the pIC50 (in data set [9]; with Ovarian cancer cell line [10]; in the data set with Melanoma cell line [11]; in [12]; in the data set on Breast carcinoma cell [13]) was 7.26 in each case. The “Ratio IC50” value with leukaemia cell line, in the data set with Melanoma cell line [14], in the data set with Ovarian cancer cell line [15], with Prostatic carcinoma cell, with Breast carcinoma cell [16] and in the data set on P388/ADR was “>=4” each time.
As for `C[C@@H]1CC[C@H]2[C@@H](C)C(=O)O[C@@H]3O[C@@]4(C)CC[C@@H]1[C@]32OO4` [ARTEMISININ], the pIC50 with MDA-MB-231 [17] was < 4.30; in the data set with MCF7 [1] it was < 4.30; in the data set with A549 [18], < 4.30; in data set [9], ≤ 4.40; with Ovarian cancer cell line [10], ≤ 4.40; in the data set with Melanoma cell line [11], ≤ 4.40. Further, the negative-log IC50 (pIC50) in data set [12] was ≤ 4.40; in the data set on K562 it was 4.41; with PC-3 it was 4.41; with A-431, 4.41; in the data set on MDA-MB-231 [19] it was 4.41; with COLO 205, 4.41. Also, the pIC50 is 4.41 in the data set with HEK293; < 3.52 in the data set with HepG2; < 3.52 with A549 [22]; < 3.52 with HCT-15 [23]; ≤ 4.40 with Breast carcinoma cell [13]; < 4.30 in data set [24]. This molecule also had a pIC50 in the data set with SMMC-7721 of 6.36. In addition, the Activity in the data set with HCT-15 [20], with A549 [21], with THP-1 and with HEp-2 was 21% each time.
